Key:
[1] = tested on: LT-HSCs; assay: CFU assay of LT-HSCs sorted from fetal livers of treated embryos; type: in vivo, mice; settings: DCA-treated embryos vs control and UK5099
Protocol: For fetal liver analysis, pregnant female C57Bl/6xB6.SJL mice were injected intraperitoneally at E9.5 with UK5099 (4 mg/kg) or DCA (200 mg/kg) or PBS (control). Embryos were harvested at E14.5 and individually weighed and processed. Fetal livers were dissected and homogenised in 800 μL ice cold PBS supplemented with 2% fetal bovine serum (FBS) and FL cells were washed in PBS with 2%/FBS. For the differentiated lineage panel, cells were stained with B220 and CD19 (B-cell markers)-PE, CD3e-APC, Ter119-PeCy7 and CD71-FITC and analyzed on a BD FACSARIA III. For the HSC panel, samples were first treated with ammonium chloride solution (STEMCELL Technologies, France) to lyse red blood cells, washed twice in ice cold PBS with 2% FBS, stained with CD3e, B220, Ter119, Gr1 (Lineage)-PeCy5, c-Kit-Efluor780, Sca1-BV421, CD48-FITC, CD150-BV605 and 7-AAD (for dead cell exclusion) and analyzed on a BD FACSARIA III. […] For plating of CFU assays, 100 LT-HSCs were sorted (gating strategy shown in FIG. 11, e) and resuspended in 3.0 mL Methocult M3434 (STEMCELL Technologies, France). Each mixture was divided onto 2 wells of a non-tissue culture treated 6-well plate. Following a 14-day incubation in a humidified incubator at 37° C., 5% CO2, 20% O2, colonies were morphologically distinguished and scored. […] Cells were stained with anti-cKit and anti-CD45 antibodies and analyzed on a BD LSRFortessa. […]

[2] = tested on: HBE1, HBG1-2, HBA1-2 transcripts; assay: Globin transcript q-PCR in CFU colonies; type: cell-based, human; settings: normalized to KLF1, UK5099 10 μM
Protocol: Subcultured HE cells were treated with StemPro Accutase Cell Dissociation Reagent for 2 minutes at 37° C. and dissociated cells were resuspended in 3 ml Methocult H4230 (STEMCELL Technologies, France) (prepared according to manufacturer's instructions, with 20 mL Iscove's Modified Dulbecco's Medium containing 2.5 μg hSCF, 5 μg GM-CSF, 2.5 μg IL-3 and 500 U EPO). Each mixture was divided onto 2 wells of a non-tissue culture treated 6-well plate. Following a 12-day incubation in a humidified incubator at 37° C., 5% CO2, 20% O2, colonies were morphologically distinguished and scored. For globin analysis, colonies in Methocult wells were harvested with PBS, washed thoroughly and frozen in RLT buffer with β-mercaptoethanol. Following RNA extraction and RT (Qiagen), gene expression was assessed with taqman probes by q-PCR. The taqman probes used for this assay are HBA1/2 (Hs00361191_g1), HBE1 (Hs00362216_m1), HBG2/1 (Hs00361131_g1) and KLF1 (Hs00610592_m1).

## O=C(O)C(Cl)Cl [DCA, dichloroacetate]
[1]
  decrease in the BFU-E to CFU-GM ratio: 80%

## N#CC(=Cc1cn(-c2ccccc2)c2ccccc12)C(=O)O [UK5099, 2-Cyano-3-(1-phenyl-1H-indol-3-yl)-2-propenoic acid]
[2]
  HBE1 (embryonic) globin transcripts: significant increase
  HBG1-2 (fetal) globin transcripts: significant increase
[2]; DCA 3 mM
  HBA1-2 (adult globin) expression: did not have an effect
